Test results as given in publication PMC7403315, “Cyclic peptide FXII inhibitor provides safe anticoagulation in a thrombosis model and in artificial lungs” (Nature Communications, 2020).
Several values for one entry are separate records, joined by “and”; a condition that tells them apart may be missing. Identical values can stand only once.

Columns and labels:
Type in all cases: biochemical
Mouse α-FXIIa = biological target: T1, Mouse α-FXIIa (Mus musculus, UniProt Q80YC5); experiment: FXIIa protease inhibition assay with fluorogenic substrate Boc-Gln-Gly-Arg-AMC
T1 construct: Mouse α-FXIIa; purchased Molecular Innovations MFXIIA
T1 sequence (Q80YC5 355-597 limits assumed): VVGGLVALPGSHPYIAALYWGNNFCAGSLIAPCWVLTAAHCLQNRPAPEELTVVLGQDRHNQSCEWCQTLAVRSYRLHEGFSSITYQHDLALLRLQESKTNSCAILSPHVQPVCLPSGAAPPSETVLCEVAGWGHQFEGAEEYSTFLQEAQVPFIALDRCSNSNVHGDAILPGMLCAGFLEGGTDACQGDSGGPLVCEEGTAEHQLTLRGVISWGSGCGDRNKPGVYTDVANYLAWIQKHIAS
T1 sequence (Q80YC5 20-354 limits assumed): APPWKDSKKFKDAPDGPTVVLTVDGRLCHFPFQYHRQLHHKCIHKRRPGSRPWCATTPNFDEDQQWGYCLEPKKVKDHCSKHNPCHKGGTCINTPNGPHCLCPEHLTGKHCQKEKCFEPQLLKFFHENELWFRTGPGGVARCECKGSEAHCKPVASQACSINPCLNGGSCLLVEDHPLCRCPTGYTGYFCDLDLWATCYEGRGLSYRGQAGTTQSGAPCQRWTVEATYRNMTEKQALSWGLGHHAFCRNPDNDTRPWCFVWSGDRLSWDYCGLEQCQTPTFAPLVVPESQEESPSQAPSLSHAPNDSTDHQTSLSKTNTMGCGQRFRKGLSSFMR
Summary of the method: (§1)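 Mouse α-FXIIa or human β-FXIIa (0.4 nM final) was preincubated with bicyclic peptide for 10 min at 25 °C in Tris-Cl buffer with 1% DMSO. Residual activity was then read over 30 min with 50 µM Boc-Gln-Gly-Arg-AMC (ex 368/em 467 nm). IC50 came from sigmoidal fits, and Ki was derived by Cheng-Prusoff.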

human β-FXIIa = biological target: T2, human β-FXIIa (Homo sapiens, UniProt P00748); experiment: as above
T2 construct: human β-FXIIa (Molecular Innovations cat #); purchased Molecular Innovations HFXIIAB; host or cells: human blood
Summary of the method: as §1

Recombinant mouse FXII = biological target: T3, Recombinant mouse FXII (Mus musculus, UniProt Q80YC5); experiment: Inhibition of recombinant FXIIa (rFXIIa); settings: Recombinant mouse FXII, individual plates, read-out: Residual activity (%)
T3 sequence (Q80YC5 355-597 limits assumed): T1 sequence (Q80YC5 355-597 limits assumed)
T3 sequence (Q80YC5 20-354 limits assumed): T1 sequence (Q80YC5 20-354 limits assumed)

[1] = crude, coumarin labeled peptides, individual plates

T2 sequence (P00748 373-615 limits assumed, other chains not shown): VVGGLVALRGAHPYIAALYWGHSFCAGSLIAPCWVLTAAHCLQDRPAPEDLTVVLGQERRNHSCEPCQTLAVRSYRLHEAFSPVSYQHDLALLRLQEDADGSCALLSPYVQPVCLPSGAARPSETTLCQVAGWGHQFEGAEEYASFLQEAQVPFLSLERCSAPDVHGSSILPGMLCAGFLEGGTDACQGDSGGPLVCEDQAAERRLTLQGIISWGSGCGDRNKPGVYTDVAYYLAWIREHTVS

CC(C)C[C@@H]1NC(=O)[C@H](CCC(N)=O)NC(=O)[C@H](CCCNC(=N)N)NC(=O)[C@@H]2CSCCC(=O)N3CN(CN(C3)C(=O)CCSC[C@H](NC(=O)[C@@H](N)CCCNC(=N)N)C(=O)N[C@@H](Cc3ccccc3)C(=O)N[C@@H](CCCNC(=N)N)C(=O)N[C@@H](CC(C)C)C(=O)N3CCC[C@H]3C(=O)N2)C(=O)CCSC[C@@H](C(=O)N[C@@H](CCCNC(=N)N)C(N)=O)NC(=O)[C@H](CCCNC(=N)N)NC1=O [FXII618]
IC50 (Mouse α-FXIIa; [1]): 290 nM and 312 nM and 236 nM and 289 nM and 257 nM and 228 nM and 245 nM and 286 nM and 358 nM | Ki (Mouse α-FXIIa; purified peptide without coumarin label, read-out: Ki mouse FXIIa): 86 ± 9 nM | IC50 (human β-FXIIa; [1]): 18.4 nM and 23.5 nM and 23.3 nM and 27.9 nM | Residual activity of human FXIIa (human β-FXIIa; inhibitor 0.488281 nM, 0.000488281 µM): 96.6624% and 92.9553% | remaining activity at 0.000488281 µM (human β-FXIIa; inhibitor 0.488281 nM, read-out: Residual activity of human FXIIa): 98.6% | Residual activity of human FXIIa (human β-FXIIa; inhibitor 1.95312 nM, 0.00195312 µM): 84.5129% and 82.3772% | remaining activity at 0.00195312 µM (human β-FXIIa; inhibitor 1.95312 nM, read-out: Residual activity of human FXIIa): 85.8% | Residual activity of human FXIIa (human β-FXIIa; inhibitor 3.90625 nM, 0.00390625 µM): 70.1534% and 69.6521% | remaining activity at 0.00390625 µM (human β-FXIIa; inhibitor 3.90625 nM, read-out: Residual activity of human FXIIa): 75.7% | Residual activity of human FXIIa (human β-FXIIa; inhibitor 7.8125 nM, 0.0078125 µM): 55.0198% and 53.6523% | remaining activity at 0.0078125 µM (human β-FXIIa; inhibitor 7.8125 nM, read-out: Residual activity of human FXIIa): 59.1% | Residual activity of human FXIIa (human β-FXIIa; inhibitor 15.625 nM, 0.015625 µM): 36.7931% and 38.5109% | remaining activity at 0.015625 µM (human β-FXIIa; inhibitor 15.625 nM, read-out: Residual activity of human FXIIa): 39.2% | Residual activity of human FXIIa (human β-FXIIa; inhibitor 31.25 nM, 0.03125 µM): 21.9721% and 22.4384% | remaining activity at 0.03125 µM (human β-FXIIa; inhibitor 31.25 nM, read-out: Residual activity of human FXIIa): 24.9% | Residual activity of human FXIIa (human β-FXIIa; inhibitor 62.5 nM, 0.0625 µM): 12.1968% and 13.3118% | remaining activity at 0.0625 µM (human β-FXIIa; inhibitor 62.5 nM, read-out: Residual activity of human FXIIa): 14% | Residual activity of human FXIIa (human β-FXIIa; inhibitor 125 nM, 0.125 µM): 6.613% and 11.4379% | remaining activity at 0.125 µM (human β-FXIIa; inhibitor 125 nM, read-out: Residual activity of human FXIIa): 7.65% | remaining activity at […] (human β-FXIIa; inhibitor 250 nM, read-out: Residual activity of human FXIIa): 3.83% | Residual activity of human FXIIa (human β-FXIIa; inhibitor 500 nM, 0.5 µM): 2.542% and 2.502% | remaining activity at 0.5 µM (human β-FXIIa; inhibitor 500 nM, read-out: Residual activity of human FXIIa): 2.52% | Residual activity of human FXIIa (human β-FXIIa; inhibitor 0.976562 / 0.976563 nM, 0.000976563 µM): 92.5507% and 90.2369% | remaining activity at 0.000976563 µM (human β-FXIIa; inhibitor 0.976562 / 0.976563 nM, read-out: Residual activity of human FXIIa): 96.2% | Ki (human β-FXIIa; purified peptide without coumarin label, read-out: Ki human FXIIa): 8.1 ± 0.7 nM | remaining activity at 0.000390625 µM (Recombinant mouse FXII; peptide 0.390625 nM): 97.5% | remaining activity at 0.00078125 µM (Recombinant mouse FXII; peptide 0.78125 nM): 99% | remaining activity at 0.0015625 µM (Recombinant mouse FXII; peptide 1.5625 nM): 99.1% | remaining activity at 0.003125 µM (Recombinant mouse FXII; peptide 3.125 nM): 96.3% | remaining activity at 0.00625 µM (Recombinant mouse FXII; peptide 6.25 nM): 94% | remaining activity at 0.0125 µM (Recombinant mouse FXII; peptide 12.5 nM): 90.3% | remaining activity at […] (Recombinant mouse FXII; peptide 25 nM): 81.9% | remaining activity at 0.05 µM (Recombinant mouse FXII; peptide 50 nM): 69.1% | remaining activity at 0.1 µM (Recombinant mouse FXII; peptide 100 nM): 53% | remaining activity at 0.2 µM (Recombinant mouse FXII; peptide 200 nM): 35.9% | remaining activity at 0.4 µM (Recombinant mouse FXII; peptide 400 nM): 22.6%
